What was measured:
[1] = 101 kPa, Liquid; for viscosity: Capillary tube (Ostwald / Ubbelohde) method; for mass density: Vibrating tube method
[2] = xn = mol fraction of the nth substance listed; details: 101 kPa, Liquid; for viscosity: Capillary tube (Ostwald / Ubbelohde) method; for mass density: Vibrating tube method

CCCCO [butan-1-ol]
[1]
Details	mass density [kg/m3]	viscosity [mPa·s]
293.15 K	809.53	2.968
298.15 K	805.7	2.602
303.15 K	801.86	2.292
308.15 K	797.99	2.025
313.15 K	794.1	1.796
318.15 K	790.18	1.59
323.15 K	786.21	1.414

CCCCO [butan-1-ol] + CCCCCCCC
[2], x2 = 0
Details	mass density [kg/m3]	viscosity [mPa·s]
293.15 K	809.53	2.968
298.15 K	805.7	2.602
303.15 K	801.86	2.292
308.15 K	797.99	2.025
313.15 K	794.1	1.796
318.15 K	790.18	1.59
323.15 K	786.21	1.414

CCO [ethanol]
[1]
Details	mass density [kg/m3]
293.15 K	790.91
298.15 K	786.6
303.15 K	782.28
308.15 K	777.94
313.15 K	773.56
318.15 K	769.15
323.15 K	764.69

CCO [ethanol] + CCCCCCCC
[2], x2 = 0
Details	mass density [kg/m3]
293.15 K	790.91
298.15 K	786.6
303.15 K	782.28
308.15 K	777.94
313.15 K	773.56
318.15 K	769.15
323.15 K	764.69

CCCCCCCC [octane]
[1]
Details	mass density [kg/m3]	viscosity [mPa·s]
293.15 K	702.54	0.545
298.15 K	698.49	0.513
303.15 K	694.44	0.485
308.15 K	690.37	0.459
313.15 K	686.29	0.433
318.15 K	682.19	0.412
323.15 K	678.08	0.392

CCCCCCCC [octane] + CCCCCO
[2], x1 = 1
Details	mass density [kg/m3]	viscosity [mPa·s]
293.15 K	702.54	0.545
298.15 K	698.49	0.513
303.15 K	694.44	0.485
308.15 K	690.37	0.459
313.15 K	686.29	0.433
318.15 K	682.19	0.412
323.15 K	678.08	0.392

Source: the NIST ThermoML archive (doi:10.1021/je4004806)
